Source: patent US5500424A, “Pyrimidine and pyridine derivatives, their production and use” (Nihon Nohyaku Co., Ltd., priority 1993, dated 1996)

Legend:
[1] = test system: hamsters fed on a high-cholesterol diet; assay: Serum cholesterol lowering activity in hamsters fed on a high-cholesterol diet; type: in vivo, Male Syrian hamsters; conditions: Mesocricetus auratus, 30 mg/kg per day for 4 days, 24 hours after last administration, read-out: Reduction rate of total serum cholesterol concentration
Description: Serum cholesterol lowering activity in hamsters fed on a high-cholesterol diet
Male Syrian hamsters of 10-week-old were divided into three groups. The first group (normal group) was fed an ordinary diet for 4 days. The second group (control group) was fed a high cholesterol diet (containing 0.5% cholesterol and 8.0% coconut oil) for 4 days. The third group (treated group) was fed a high cholesterol diet and was treated with a compound for 4 days. Simultaneously with the beginning of the above feeding, the compound was suspended in a 0.5% carboxymethyl cellulose solution and administered to the treated group, in a dose of 30 mg (in terms of the compound) per kg of body weight per day for 4 days. A 0.5% carboxymethyl cellulose solution was also administered to the normal group and the control group in the same manner as above.
After 24 hours of the last administration, blood was collected and the cholesterol concentration in serum was measured by an enzymatic method. The reduction rate of the total serum cholesterol concentration was calculated from values obtained for the three groups by the following equation. [formula] wherein A: the serum cholesterol concentration of the control group.
B: the serum cholesterol concentration of the treated group.
C: the serum cholesterol concentration of the normal group.

[2] = molecular target: T1, acyl-CoA:cholesterol acyltransferase (ACAT) (Oryctolagus cuniculus, UniProt G1SFD9); assay: Inhibitory activity on acyl-CoA:cholesterol acyltransferase (ACAT); type: biochemical, white rabbit; conditions: rabbit intestinal mucosa microsomes, read-out: Inhibition rate
T1 construct: The intestinal mucosa of a white rabbit was homogenized and microsomal fraction was obtained; from tissue; host or cells: white rabbit intestinal mucosa, microsomal fraction
T1 sequence (G1SFD9 1-524): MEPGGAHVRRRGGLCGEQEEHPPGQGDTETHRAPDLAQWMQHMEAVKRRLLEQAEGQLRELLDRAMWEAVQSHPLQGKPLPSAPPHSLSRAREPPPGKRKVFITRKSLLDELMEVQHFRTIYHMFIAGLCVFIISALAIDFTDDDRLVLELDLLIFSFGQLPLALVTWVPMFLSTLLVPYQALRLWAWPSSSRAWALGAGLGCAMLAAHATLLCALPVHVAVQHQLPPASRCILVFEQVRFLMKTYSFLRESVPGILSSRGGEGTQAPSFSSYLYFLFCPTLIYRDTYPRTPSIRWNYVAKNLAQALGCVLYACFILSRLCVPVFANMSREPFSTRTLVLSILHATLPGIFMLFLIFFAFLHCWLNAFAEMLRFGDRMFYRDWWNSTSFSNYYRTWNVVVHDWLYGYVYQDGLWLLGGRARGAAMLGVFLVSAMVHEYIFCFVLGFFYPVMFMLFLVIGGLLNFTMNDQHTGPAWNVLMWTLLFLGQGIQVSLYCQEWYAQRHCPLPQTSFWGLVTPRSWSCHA
Description: Inhibitory activity on acyl-CoA:cholesterol acyltransferase (ACAT)
The enzyme used in the test was prepared according to the method of Heider et al. [J. Lipid, Res. 24, 1127 (1983)]. The intestinal mucosa of a white rabbit was homogenized and microsomal fraction was obtained by stepwise centrifugation. The microsomal fraction was suspended in 0.154M phosphate buffer (pH 7.4) and stored at -80° C. until use.
ACAT activity was determined by a modification of the method of Helgerud et al. [J. Lipid Res. 22, 271 (1981)] by measuring radioactivity incorporated into cholesterol esters from [1-^14 C]oleyl-CoA, as an indication. As to the ACAT-inhibitory activity of each compound to be tested, the inhibition rate was calculated by the following equation. [formula]

| SMILES | inhibition in vivo at 30 mg/kg [1] | inhibition at 0.01 µM [2] | inhibition at 1 µM [2] |
| --- | --- | --- | --- |
| CCc1cccc(CC)c1NC(=O)Nc1cnc(N2CCOCC2)nc1-c1ccccc1Cl [Compound 57, N-[4-(2-Chlorophenyl)-2-(N-morpholino)pyrimidin-5-yl]-N'-(2,6-diethylphenyl)urea] | 59.5% | 63.2% | – |
| CCc1cccc(CC)c1NC(=O)Nc1cnc(-c2ccccc2)nc1-c1ccccc1Cl [Compound 14, N-[4-(2-Chlorophenyl)-2-phenylpyrimidin-5-yl]-N'-(2,6-diethylphenyl)urea] | 59.4% | 58.8% | 99% |
| CC(C)c1cccc(C(C)C)c1NC(=O)Nc1cnc(N2CCCCC2)nc1-c1ccccc1Cl [Compound 56, N-[4-(2-Chlorophenyl)-2-(N-piperidino)pyrimidin-5-yl]-N'-(2,6-diisopropylphenyl)urea] | – | 69.5% | – |
| CC(C)c1cccc(C(C)C)c1NC(=O)Nc1cnc(-c2ccccc2)nc1-c1ccc(Cl)cc1 [Compound 28, N-[4-(4-Chlorophenyl)-2-phenylpyrimidin-5-yl]-N'-(2,6-diisopropylphenyl)urea] | – | 40.7% | – |
| CC(C)c1cccc(C(C)C)c1NC(=O)Nc1cnc(-c2ccccc2)nc1-c1ccccc1F [Compound 34, N-(2,6-Diisopropylphenyl)-N'-[4-(2-fluorophenyl)-2-phenylpyrimidin-5-yl]urea] | 74% | 65.8% | – |
| Cc1nc(-c2ccccc2)nc(-c2ccccc2Cl)c1NC(=O)Nc1ccc(N(C)C)cc1 [Compound 6, N-[4-(2-Chlorophenyl)-6-methyl-2-phenylpyrimidin-5-yl]-N'-(4-dimethylaminophenyl)urea] | – | – | 23% |
| CC(C)c1cccc(C(C)C)c1NC(=O)Nc1cnc(-c2ccccc2)nc1-c1ccc(Cl)cc1Cl [Compound 30, N-[4-(2,4-Dichlorophenyl)-2-phenylpyrimidin-5-yl]-N'-[2,6-diisopropylphenyl)urea] | – | 37.1% | – |
| Cc1nc(-c2ccccc2)nc(-c2ccccc2Cl)c1NC(=O)Nc1c(C(C)C)cccc1C(C)C [Compound 2, N-[4-(2-Chlorophenyl)-6-methyl-2-phenylpyrimidin-5-yl]-N'-(2,6-diisopropylphenyl)urea] | 42.7% | 58.5% | 99.2% |
| CC(C)c1cccc(C(C)C)c1NC(=O)Nc1ccc(-c2ccccc2)nc1-c1ccccc1Cl [Compound 63, N-[2-(2-Chlorophenyl)-6-phenylpyridin-3-yl]-N'-(2,6-diisopropylphenyl)urea] | – | 53.1% | – |
| CC(C)c1cccc(C(C)C)c1NC(=O)Nc1cnc(-c2cc(Cl)cc(Cl)c2)nc1-c1ccccc1Cl [Compound 44, N-[4-(2-Chlorophenyl)-2-(3,5-dichlorophenyl)pyrimidin-5-yl]-N'-(2,6-diisopropylphenyl)urea] | – | 46.8% | – |
| Cc1cc(C)c(NC(=O)Nc2c(C)nc(-c3ccccc3)nc2-c2ccccc2Cl)c(C)c1 [Compound 3, N-[4-(2-Chlorophenyl)-6-methyl-2-phenylpyrimidin-5-yl]-N'-(2,4,6-trimethylphenyl)urea] | – | – | 88.3% |
| CC(C)c1cccc(C(C)C)c1NC(=O)Nc1ccc(C2CCCCC2)nc1-c1ccccc1Cl [Compound 67, N-[2-(2-Chlorophenyl)-6-cyclohexylpyridin-3-yl]-N'-(2,6-diisopropylphenyl)urea] | – | 58% | – |
| Cc1ccc(NC(=O)Nc2c(C(C)C)cccc2C(C)C)c(-c2ccccc2Cl)n1 [Compound 64, N-[2-(2-Chlorophenyl)-6-methylpyridin-3-yl]-N'-(2,6-diisopropylphenyl)urea] | – | 43.6% | – |
| Cc1cc(C)c(NC(=O)Nc2cnc(-c3ccccc3)nc2-c2ccccc2Cl)c(C)c1 [Compound 18, N-[4-(2-Chlorophenyl)-2-phenylpyrimidin-5-yl]N'-(2,4,6-trimethylphenyl) urea] | – | – | 79.7% |
| CCOc1ncc(NC(=O)Nc2c(C(C)C)cccc2C(C)C)c(-c2ccccc2Cl)n1 [Compound 52, N-[4-(2-Chlorophenyl)-2-ethoxypyrimidin-5-yl]-N'-(2,6-diisopropylphenyl)urea] | – | 64.7% | – |
| CCCCCCCc1ccc(NC(=O)Nc2c(C(C)C)cccc2C(C)C)c(-c2ccccc2Cl)n1 [Compound 65, N-[2-(2-Chlorophenyl)-6-(n-heptyl)pyridin-3-yl]-N'-(2,6-diisopropylphenyl)urea] | – | 29.8% | – |
| O=C(Nc1cnc(-c2ccccc2)nc1-c1ccccc1Cl)Nc1c(F)cc(F)cc1F [Compound 23, N-[4-(2-Chlorophenyl)-2-phenylpyrimidin-5-yl]-N'-(2,4,6-trifluorophenyl)urea] | – | – | 87% |
| CCc1cccc(CC)c1NC(=O)Nc1cnc(N2CCCC2)nc1-c1ccccc1Cl [Compound 53, N-[4-(2-Chlorophenyl)-2-(N-pyrrolidino)pyrimidin-5-yl]-N'-(2,6-diethylphenyl)urea] | – | 70% | – |
| Cc1cccc(N(C)C)c1NC(=O)Nc1cnc(-c2ccccc2)nc1-c1ccccc1Cl [Compound 19, N-[4-(2-Chlorophenyl)-2-phenylpyrimidin-5-yl]-N'-(2-dimethylamino-6-methylphenyl)urea] | – | 35.9% | – |
| CC(C)c1cccc(C(C)C)c1NC(=O)Nc1cnc(-c2ccccc2)nc1-c1cccc(Cl)c1 [Compound 26, N-[4-(3-Chlorophenyl)-2-phenylpyrimidin-5-yl]-N'-(2,6-diisopropylphenyl)urea] | – | 58.9% | – |
| CC(C)c1cccc(C(C)C)c1NC(=O)Nc1cnc(C(C)(C)C)nc1-c1ccccc1Cl [Compound 50, N-[2-t-Butyl-4-(2-chlorophenyl)pyrimidin-5-yl]-N'-(2,6-diisopropylphenyl)urea] | – | 48.4% | – |
| Cc1ncc(NC(=O)Nc2c(C(C)C)cccc2C(C)C)c(-c2ccccc2Cl)n1 [Compound 46, N-[4-(2-Chlorophenyl)-2-methylpyrimidin-5-yl]-N'-(2,6-diisopropylphenyl)urea] | – | 32% | – |
| Cc1cccc(C)c1NC(=O)Nc1cnc(-c2ccccc2)nc1-c1ccccc1Cl [Compound 13, N-[4-(2-Chlorophenyl)-2-phenylpyrimidin-5-yl]-N'-(2,6-dimethylphenyl)urea] | – | 40.2% | 97.5% |
| COc1ccccc1-c1nc(-c2ccccc2)ncc1NC(=O)Nc1c(C(C)C)cccc1C(C)C [Compound 40, N-(2,6-Diisopropylphenyl)-N'-[4-(2-methoxyphenyl)-2-phenylpyrimidin-5-yl]urea] | – | 47.5% | – |
| CC(C)c1cccc(C(C)C)c1NC(=O)Nc1cnc(N2CCN(C)CC2)nc1-c1ccccc1Cl [Compound 60, N-[4-(2-Chlorophenyl)-2-(4-methyl-1-piperazino)pyrimidin-5-yl]-N'-(2,6-diisopropylphenyl)urea] | – | 40.1% | – |
| CCc1cccc(CC)c1NC(=O)Nc1cnc(-c2ccccc2)nc1-c1ccccc1SC [Compound 41, N-(2,6-Diethylphenyl)-N'-[4-(2-methylthiophenyl)-2-phenylpyrimidin-5-yl]urea] | – | 56.3% | – |
| Cc1cccc(C(C)C)c1NC(=O)Nc1c(C)nc(-c2ccccc2)nc1-c1ccccc1Cl [Compound 1, N-[4-(2-Chlorophenyl)-6-methyl-2-phenylpyrimidin-5-yl]-N'-(2-isopropyl-6-methylphenyl)urea] | – | 16.7% | 98% |
